Like-named read-outs stand apart in the source and are kept apart here. One block for each compound: values may come before it.
Experiments:
[1] = cited from earlier work
[2] = Food-effect pharmacokinetic study of ertugliflozin 15-mg tablet; conditions: for AUC(0-t): AUClast
[3] = for AUC(0-inf): AUCinf; for AUC(0-t): AUClast; for Fed:Fasted GMR (90% CI) AUCinf / Fed:Fasted GMR (90% CI) Cmax: adjusted geometric mean ratio fed:fasted
[4] = high solubility and high permeability; no reference given; cited from earlier work
[5] = early phase 1 and 2 studies, no reference given; cited from earlier work
[6] = for AUC(0-inf) / AUC(0-t) / Cmax / Tmax / half-life: plasma, single oral dose, healthy subjects; for AUC(0-inf): AUCinf; for AUC(0-inf) / AUC(0-t) / Cmax / Tmax / half-life / Fed:Fasted GMR (90% CI) AUCinf / Fed:Fasted GMR (90% CI) Cmax: ertugliflozin 15-mg/sitagliptin 100-mg FDC tablet; for AUC(0-t): AUClast; for Tmax: median (range); for half-life: t1/2, arithmetic mean ± SD; for Fed:Fasted GMR (90% CI) AUCinf / Fed:Fasted GMR (90% CI) Cmax: adjusted geometric mean ratio fed:fasted
[7] = Summary across the 3 food-effect studies; type: in vivo, human
[8] = metformin 850 mg alone; cited from earlier work
[9] = sitagliptin monotherapy, cited from earlier work
[10] = ertugliflozin 15-mg tablet, adjusted geometric mean ratio fed:fasted
[11] = both, human, plasma, po, arithmetic mean ± SD, ertugliflozin 7.5-mg/metformin 1000-mg FDC tablet, single oral dose, healthy subjects, fed (high-fat breakfast)
[12] = both, human, plasma, po, geometric mean (geometric %CV), ertugliflozin 7.5-mg/metformin 1000-mg FDC tablet, single oral dose, healthy subjects, fasted
[13] = both, human, plasma, po, geometric mean (geometric %CV), ertugliflozin 7.5-mg/metformin 1000-mg FDC tablet, single oral dose, healthy subjects, fed (high-fat breakfast)
[14] = ertugliflozin 7.5-mg/metformin 1000-mg FDC tablet
[15] = both, human, po, geometric mean (geometric %CV), fasted
[16] = both, human, po, geometric mean (geometric %CV), fed (high-fat breakfast)
[17] = both, human, po, fed (high-fat breakfast)

Structure (SMILES): CCOc1ccc(Cc2cc([C@]34OC[C@](CO)(O3)[C@@H](O)[C@H](O)[C@H]4O)ccc2Cl)cc1 [Ertugliflozin]
Dose proportionality of exposure ([1]; dose range of 0.5 to 300 mg): dose proportional | median Tmax ([1]; phase 1 studies, oral administration, fasted conditions): 0.5 to 1.5 h | terminal elimination half-life (t1/2) ([1]; phase 1 studies): 11 to 17 h | Decrease of Cmax in the fed state compared with the fasted state ([2]; administered as monotherapy (15-mg tablet), based on adjusted GMR): 29% | half-life ([2]; both, human, plasma, po, 15 mg): 11.5 ± 2.6 h | AUC(0-inf) ([2]; both, human, plasma, po, 15 mg, AUCinf, geometric mean (geometric %CV), ertugliflozin 15-mg tablet, single oral dose, healthy subjects, fasted): 1330 ng·h/mL | AUC(0-t) ([2]; both, human, plasma, po, 15 mg, geometric mean (geometric %CV), ertugliflozin 15-mg tablet, single oral dose, healthy subjects, fasted): 1310 ng·h/mL | AUC(0-t) ([2]; both, human, plasma, po, 15 mg, geometric mean (geometric %CV), ertugliflozin 15-mg tablet, single oral dose, healthy subjects, fed (high-fat breakfast)): 1220 ng·h/mL | Cmax ([2]; both, human, plasma, po, 15 mg, Cmax, geometric mean (geometric %CV), ertugliflozin 15-mg tablet, single oral dose, healthy subjects, fasted): 271 ng/mL | Fed:Fasted GMR (90% CI) AUCinf [2, 10]: 91.7 (88.0–95.4) % | Fed:Fasted GMR (90% CI) Cmax [2, 10]: 70.7 (61.7–80.9) % | Decrease of Cmax in the fed state compared with the fasted state ([3]; administered as ertugliflozin/metformin FDC, based on adjusted GMR): 41% | AUC(0-inf) [3, 11]: 621 ± 168 ng·h/mL | AUC(0-inf) [3, 12]: 655 ng·h/mL | AUC(0-inf) [3, 13]: 602 ng·h/mL | AUC(0-t) [3, 11]: 606 ± 166 ng·h/mL | AUC(0-t) [3, 12]: 640 ng·h/mL | AUC(0-t) [3, 13]: 587 ng·h/mL | Cmax [3, 11]: 82.3 ± 40.7 ng/mL | Cmax [3, 12]: 126 ng/mL | Cmax [3, 13]: 75.3 ng/mL | half-life ([3]; both, human, plasma, po, t1/2, arithmetic mean ± SD, ertugliflozin 7.5-mg/metformin 1000-mg FDC tablet, single oral dose, healthy subjects, fed (high-fat breakfast)): 11.2 ± 4.5 h | Fed:Fasted GMR (90% CI) AUCinf [3, 14]: 93.8 (90.1–97.7) % | Fed:Fasted GMR (90% CI) Cmax [3, 14]: 59.4 (51.1–69.1) % | Biopharmaceutical Classification System (BCS) class [4]: class I | Maximum tolerated dose [5]: has not been identified | Decrease of Cmax in the fed state compared with the fasted state ([6]; administered as ertugliflozin/sitagliptin FDC, based on adjusted GMR): 30% | AUC(0-inf) [6, 15]: 1170 ng·h/mL | AUC(0-inf) [6, 16]: 1110 ng·h/mL | AUC(0-t) [6, 15]: 1150 ng·h/mL | AUC(0-t) [6, 16]: 1090 ng·h/mL | Cmax ([6]; both, human, po, Cmax, geometric mean (geometric %CV), fasted): 223 ng/mL | Cmax ([6]; both, human, po, Cmax, geometric mean (geometric %CV), fed (high-fat breakfast)): 157 ng/mL | Tmax [6, 17]: 2 h | half-life [6, 17]: 11.6 ± 2.3 h | Fed:Fasted GMR (90% CI) AUCinf [6]: 94.6 (91.6–97.8) % | Fed:Fasted GMR (90% CI) Cmax [6]: 70.5 (63.3–78.4) % | Delay of median Tmax, fed compared with fasted ([7]; in all 3 studies): 1 h | Reduction of Cmax, fed compared with fasted ([7]; range across the 3 studies): 29%–41%

Delay of Tmax, fed versus fasted ([3]; administered as ertugliflozin/metformin FDC tablet): 1.7 h | Tmax ([3]; both, human, plasma, po): 2.3 h | Cmax [3, 11]: 1520 ± 417 ng/mL | Cmax [3, 12]: 2040 ng/mL | Cmax [3, 13]: 1460 ng/mL | Fed:Fasted GMR (90% CI) AUCinf [3, 14]: 92.8 (85.1–101.3) % | Fed:Fasted GMR (90% CI) Cmax [3, 14]: 70.7 (63.6–78.5) % | Tmax, median (range) ([3]; ertugliflozin 7.5-mg/metformin 1000-mg FDC tablet, single oral dose, healthy subjects, plasma, fed (high-fat breakfast)): 4.0 (0.5–8.0) h
Structure (SMILES): CN(C)C(=N)N=C(N)N [Metformin]
Increase in Tmax, fed versus fasted [8]: approximately 35 minute | Lower AUC, fed versus fasted [8]: 25% | Lower mean Cmax, fed versus fasted [8]: 40%

AUC(0-inf) [6, 16]: 7.1 µM·h | AUC(0-t) [6, 15]: 7.3 µM·h | Tmax [6, 17]: 1.8 h | half-life [6, 17]: 12.1 ± 1.6 h | Fed:Fasted GMR (90% CI) AUCinf [6]: 96.6 (94.0–99.4) % | Fed:Fasted GMR (90% CI) Cmax [6]: 96.1 (82.4–112.1) % | Cmax ([6]; read-out: Cmax, geometric mean (geometric %CV), fed (high-fat breakfast), 1.00 ng/mL = 2.46 nM): 721 nM
Structure (SMILES): N[C@@H](CC(=O)N1CCn2c(nnc2C(F)(F)F)C1)Cc1cc(F)c(F)cc1F [Sitagliptin]
fed:fasted GMR for Cmax ([9]; 90% CI 86%–103%): 94% | fed:fasted GMR for AUCinf ([9]; 90% CI 97%–111%): 103%

From paper PMC6618047 (Clinical Pharmacology in Drug Development, 2018)
